Reference: publication PMC5374441 (Scientific Reports, 2017)
Bridge positions count the residues as written; N and C are the ends. Peptide text beside a SMILES is read from it.

Molecular target: T1, Q55K Ls-AChBP mutant (Lymnaea stagnalis, UniProt P58154, Q74K)
T1 construct: made in house; Top10 E. coli is named only for plasmid propagation
Test: biochemical
Type: binding
Conditions: SEM

`CC[C@H](C)[C@@H]1NC(=O)[C@H](CC(N)=O)NC(=O)[C@@H]2CCCN2C(=O)[C@H](CC(N)=O)NC(=O)[C@H](CC(N)=O)NC(=O)[C@H](C(C)C)NC(=O)[C@H](CCCNC(=N)N)NC(=O)[C@@H]2CSSC[C@H](NC(=O)CNC(=O)[C@@H](N)CO)C(=O)N[C@@H](CSSC[C@@H](C(N)=O)NC1=O)C(=O)N[C@@H](CO)C(=O)N[C@@H](CC(N)=O)C(=O)N1CCC[C@H]1C(=O)N[C@@H](C)C(=O)N2` [LsIA] (H-SGCCSNPACRVNNPNIC-NH2; disulfide 3-9, 4-17) showed an IC50 of 17.4 ± 10.7 µM.
